Laboratory results from paper PMC8063026 (Frontiers in Pharmacology, 2021).
Read-outs that look alike come from different tables or passages of the source.

Assays:
SERT [1] = target: T1, SERT (Homo sapiens, UniProt P31645); assay: Uptake-inhibition of [3H]5-HT in HEK293 cells stably expressing human SERT; type: cell-based; settings: for pIC50 SERT: from IC50 SERT
T1 construct: expressed in transfected cells

human NET [2] = target: T2, human NET (Homo sapiens, UniProt P23975); assay: cell-based; settings: for pIC50 NET: QSAR data matrix, from IC50 NET; for IC50: mean (95% confidence interval), non-linear regression, read-out: IC50 (µM) NET
T2 construct: expressed in transfected cells

DAT [3] = target: T3, DAT (Homo sapiens, UniProt Q01959); assay: cell-based
T3 construct: expressed in transfected cells

human NET [4] = target: T2, human NET; settings: QSAR data matrix; unit inferred; compounds not tested in this paper, source not given, presumably ref Mayer et al., 2019; cited from earlier work
SERT [5] = target: T1, SERT; settings: QSAR data matrix; unit inferred; compounds not tested in this paper, source not given, presumably ref Mayer et al., 2019; read-out: IC50 SERT; cited from earlier work
DAT [6] = target: T3, DAT; settings: QSAR data matrix; unit inferred; compounds not tested in this paper, source not given, presumably ref Mayer et al., 2019; read-out: IC50 DAT; cited from earlier work
[7] = ref Olesti et al., 2019; cited from earlier work
[8] = LC-MS/MS detection of mephedrone metabolites in a human urine sample; type: in vivo; parameters: key to Detected in urine samples: detected (+); not detected (−); settings: for detection in human urine sample: achiral LC-MS/MS, after enzymatic workup; for Detected in urine samples: human urine, mephedrone user, only syn- and anti-configurations could be separated
Description: The biological specimen, human urine, was provided by the Department of Chemical Analytics, Seibersdorf Laboratories GmbH. The sample was taken from a subject postmortem in a fatal case of drug overdose. […] Given this fact, we assumed that also the metabolites would be detectable in sufficient quantity. To evaluate the presence of any metabolites whatsoever in the urine sample we designed an achiral separation protocol for liquid chromatography and we coupled it with triple quadrupole mass spectrometer. The advantage of LC-MS/MS system is that even if two substances have the same retention time, they can still be differentiated by their fragmentation pattern. More in details, the samples for urine analysis were analyzed using a CTC HTS PAL autosampler (CTC Analytics) and a Thermo Surveyor LC system (Thermo) interfaced to a TSQ Quantum Discovery Max triple quadrupole mass spectrometer (Thermo). A C18 security guard cartridge (4 × 2 mm) (Phenomenex) was used for sample clean-up and the analytical HPLC column was a Kinetex 1.7 μm C18 100Å 150 × 2.1 mm (Phenomenex) and Cortecs T3, 2.7 μm C18 120Å 100 × 2.1 mm (Waters). Column selection was performed by a Maylab Mistraswitch column selector (Maylab Analytical Instruments). The solvents were 0.2% formic acid in water (A) and acetonitrile (B). The temperature of the analytical column was maintained at 40°C. The mass spectrometer was equipped with heated electrospray ionization (ESI) source and was operated in positive ionization mode with a spray voltage set at 4500V. The capillary temperature was adjusted to 320°C. The sheath and auxiliary gas (nitrogen) flow rate was 25 and 10 arbitrary units, respectively. The system was operated in selected […] (srm) mode with argon as the collision gas at a pressure of 1.5 mTorr. For the achiral separation, stem solutions were prepared by weighing the reference substances in volumetric flasks and filling them up with MeOH (99.9%; HPLC grade), creating average concentration of 1 mg/ml. Then dilution solutions were prepared as follows: 10 μL of stem solution was filled up to 5 ml MeOH, creating dilution […]. Samples were prepared from dilution solutions by taking out 25 μL and mixing it together with 25 μL of ISP, 50 μL ISS and filled up to 1 ml with Milli-Q water. The final sample solvent was water/MeOH 9/1. For the enzymatic workup, phosphate buffer (1 ml, 0.8M, pH = 7), β-glucuronidase/arylsulfatase (25 μL) and β-glucuronidase (25 μL) were added to the solutions. The solutions were heated at 50°C during 1 h upon which EtOAc (7 ml) was added. The solution was put into shaker for 10min, following centrifugation for 5 min. The organic phase was separated and evaporated into dryness in stream of pressurized nitrogen. The residue was taken up in 150 μL MQ-water/MeOH 9/1 + 0.4% formic acid, heated at 50°C for 5 min and subjected to LC-MS analysis.
If on one hand the synthesis of putative metabolites allows the establishment of structure activity relationships, on the other hand, it provides pure material to evaluate their presence in human urine samples and determine their pharmacological relevance. To determine the presence of any metabolites in the urine sample, we have designed an achiral separation protocol and coupled the liquid chromatography with triple quadrupole mass spectrometer (LCMS/MS). With the LCMS/MS system two substances with the same retention time, can still be differentiated by their fragmentation pattern. Since metabolites carrying a primary alcohol functionality can form glucuronide and sulfate conjugates, we performed an enzymatic workup of the urine sample in order to cleave them. Apart from the parental drug, we detected 4-OH-MMC and 4-MC (nor-meph) which we have both already identified in our previous publication ([Mayer et al., 2019]), and the two previously uncharacterized metabolites 4-COOH-MC and dihydro-4-MC (Figure 6). […]

SERT [9] = target: T1, SERT; assay: Transporter electrophysiology (whole cell patch clamp), HEK293 cells stably expressing SERT; type: cell-based; settings: compound applied at 30 µM, -60 mV
Procedure: (§1) Human embryonic kidney 293 cells (HEK293 cells) were cultivated in Dulbecco’s Modified Eagle Medium (DMEM), containing 10% heat-in- activated fetal calf serum (FCS), streptomycin (100 μg x 100 ml−1) and penicillin (100 U × 100 ml−1). Geneticin (50 μg x mL−1) was added to select HEK293 cells stably expressing the human isoforms of DAT, NET and SERT as described earlier ([Mayer et al., 2016a]). Cell lines were maintained in a sub-confluent state in humidified atmosphere (37°C, 5% CO2). For uptake inhibition experiments cells expressing the desired transporter were seeded the days before the experiment (40,000 cells per well) or two days before the experiments (20,000 cells per well) onto poly-D-lysine (PDL) coated 96-well plates 24 h prior to the experiment. In the case of transporter-electrophysiology cells were cultivated in 10 cm dishes and 24 h before the experiments they were detached, and seeded at low density onto PDL-coated 3 cm dishes.
(§2) Transporter electrophysiology was conducted by the means of whole cell patch clamp in HEK293 cells stably expressing DAT or SERT. Substrate-induced currents were recorded under voltage clamp (−60 mV). Cells were continuously superfused with a physiological external solution that contains 140 mM NaCl, 2.5 mM CaCl2, 2 mM MgCl2, 20 mM glucose and 10 mM HEPES, pH = 7.4. The pipette solution contained 133 mM potassium gluconate, 6 mM NaCl, 1 mM CaCl2, 0.7 mM MgCl2, 10 mM HEPES, 10 mM EGTA, pH = 7.2. Currents elicited by mephedrone 30 μM, were measured at room temperature (20–24°C) using an […] amplifier and pClamp 11.2 software (MDS Analytical Technologies). All the solutions perfused onto the cell were applied using a DAD-12 superfusion system and a 8-tube perfusion manifold (ALA Scientific Instruments), which allowed for rapid solution exchange. Current traces were filtered at 1 kHz and digitized at 10 kHz using a Digidata 1,550 (MDS Analytical Technologies). […] For the analysis, passive holding currents were subtracted, and the traces were filtered using a 100-Hz digital Gaussian low-pass filter.

DAT [10] = target: T3, DAT; assay: Transporter electrophysiology (whole cell patch clamp), HEK293 cells stably expressing DAT; type: cell-based; settings: compound applied at 30 µM, -60 mV
Procedure: as §1, §2

[11] = minor metabolites in rats; ref Linhart et al., 2016; cited from earlier work
[12] = QSAR data matrix, from IC50 DAT
[13] = mean (95% confidence interval), non-linear regression, read-out: IC50 (µM) SERT
[14] = QSAR data matrix, from IC50 DAT, read-out: pIC50 DAT (converted)
[15] = mean (95% confidence interval), non-linear regression, read-out: IC50 (µM) DAT
[16] = IC50 (µM) SERT, mean (95% confidence interval), non-linear regression
[17] = IC50 SERT, QSAR data matrix, unit inferred

T2 sequence (P23975 whole entry): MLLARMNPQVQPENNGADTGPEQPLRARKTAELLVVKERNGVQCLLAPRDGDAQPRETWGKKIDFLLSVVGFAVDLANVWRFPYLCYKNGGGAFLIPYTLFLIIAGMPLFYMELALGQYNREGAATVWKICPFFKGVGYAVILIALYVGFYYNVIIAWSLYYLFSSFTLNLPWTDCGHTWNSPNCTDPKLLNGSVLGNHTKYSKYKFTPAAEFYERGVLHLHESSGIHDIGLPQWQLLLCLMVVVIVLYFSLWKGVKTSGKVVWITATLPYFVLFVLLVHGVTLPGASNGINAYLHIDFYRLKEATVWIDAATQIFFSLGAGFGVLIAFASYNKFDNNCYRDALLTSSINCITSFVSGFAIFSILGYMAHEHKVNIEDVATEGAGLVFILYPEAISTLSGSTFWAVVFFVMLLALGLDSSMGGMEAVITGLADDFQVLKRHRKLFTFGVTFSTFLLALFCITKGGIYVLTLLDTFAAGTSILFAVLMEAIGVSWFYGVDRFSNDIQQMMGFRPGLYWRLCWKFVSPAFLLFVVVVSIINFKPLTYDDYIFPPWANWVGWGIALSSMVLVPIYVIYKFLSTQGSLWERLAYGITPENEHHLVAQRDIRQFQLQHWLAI
T1 sequence (P31645 whole entry): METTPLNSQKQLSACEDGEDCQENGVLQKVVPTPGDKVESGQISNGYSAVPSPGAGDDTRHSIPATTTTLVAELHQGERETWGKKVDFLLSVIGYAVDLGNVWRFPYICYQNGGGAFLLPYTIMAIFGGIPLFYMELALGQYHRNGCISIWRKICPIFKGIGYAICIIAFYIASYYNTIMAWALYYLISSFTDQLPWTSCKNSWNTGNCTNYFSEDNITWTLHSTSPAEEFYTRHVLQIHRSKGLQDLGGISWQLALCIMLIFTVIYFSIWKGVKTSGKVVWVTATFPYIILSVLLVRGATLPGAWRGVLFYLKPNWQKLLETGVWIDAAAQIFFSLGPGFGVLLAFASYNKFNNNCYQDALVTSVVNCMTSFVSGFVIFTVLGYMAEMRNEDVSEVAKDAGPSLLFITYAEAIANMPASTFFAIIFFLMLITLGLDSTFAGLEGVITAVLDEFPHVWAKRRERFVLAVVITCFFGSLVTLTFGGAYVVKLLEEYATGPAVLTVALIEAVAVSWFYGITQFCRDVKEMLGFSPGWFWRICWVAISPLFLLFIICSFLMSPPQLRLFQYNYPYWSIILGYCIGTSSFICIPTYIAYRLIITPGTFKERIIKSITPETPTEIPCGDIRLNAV
T3 sequence (Q01959 whole entry): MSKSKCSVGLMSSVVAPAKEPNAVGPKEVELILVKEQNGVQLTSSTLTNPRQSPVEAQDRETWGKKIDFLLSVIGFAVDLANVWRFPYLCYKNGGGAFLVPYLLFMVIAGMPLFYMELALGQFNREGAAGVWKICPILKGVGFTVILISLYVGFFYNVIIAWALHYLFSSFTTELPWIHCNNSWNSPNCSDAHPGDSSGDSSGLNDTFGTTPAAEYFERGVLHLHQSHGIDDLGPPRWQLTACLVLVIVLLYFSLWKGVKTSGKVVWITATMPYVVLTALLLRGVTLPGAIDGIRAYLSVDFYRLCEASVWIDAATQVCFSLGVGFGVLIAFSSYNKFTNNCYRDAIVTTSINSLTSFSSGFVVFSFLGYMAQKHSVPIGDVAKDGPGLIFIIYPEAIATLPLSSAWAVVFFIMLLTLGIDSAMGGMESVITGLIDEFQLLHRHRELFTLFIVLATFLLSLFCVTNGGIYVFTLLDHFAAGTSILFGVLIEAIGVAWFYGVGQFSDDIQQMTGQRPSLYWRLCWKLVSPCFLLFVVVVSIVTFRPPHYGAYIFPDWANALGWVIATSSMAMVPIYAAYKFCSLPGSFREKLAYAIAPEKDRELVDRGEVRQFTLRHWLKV

Compound	pIC50 SERT (SERT [1]; QSAR data matrix)	pIC50 NET (human NET [2])	pIC50 DAT (DAT [3]; [12])	IC50 (human NET [4])	IC50 (SERT [5])	IC50 (DAT [6])	SERT-mediated current (SERT [9])	DAT-mediated current (DAT [10])	Selectivity ratio NET/DAT (human NET [2])	IC50 (human NET [2])	Detected in urine samples [8]	Selectivity ratio DAT/SERT (DAT [3])	IC50 (DAT [3]; [15])	further results
CN[C@H](C)[C@H](O)c1ccc(C)cc1 [1R2R-MMC, reference compound]	3.52	4.41	4.85	39.1 µM	302 µM	14.1 µM								
CN[C@@H](C)[C@H](O)c1ccc(C)cc1 [1R2S-MMC, reference compound]	4.49	4.41	4.68	39 µM	32.2 µM	21.1 µM								
CN[C@H](C)[C@@H](O)c1ccc(C)cc1 [1S2R-MMC, reference compound]	4.18	4.64	4.90	22.7 µM	65.6 µM	12.7 µM								
CN[C@@H](C)[C@@H](O)c1ccc(C)cc1 [1S2S-MMC, reference compound]	3.61	4.33	4.89	47.1 µM	248 µM	12.9 µM								
Cc1ccc(C(=O)[C@@H](C)N)cc1 [2R-MC, reference compound]	3.70	5.34	5.03	4.54 µM	200 µM	9.44 µM								
Cc1ccc(C(=O)[C@H](C)N)cc1 [2S-MC, reference compound]	4.96	5.42	5.06	3.84 µM	10.9 µM	8.72 µM								
Cc1ccc(C(=O)C(C)N)cc1 (stereo not drawn) [4-MC, nor-mephedrone, reference compound]														plasma level as % of the plasma mephedrone [7]: 25%; detection in human urine sample [8]: detected
CN[C@H](C)[C@H](O)c1ccc(CO)cc1 [Dihydro-(R,R)-4-OH-MMC]							did not elicit any DAT or SERT-mediated current	did not elicit any DAT or SERT-mediated current	0.69	37 µM	−	67.72	25.6 µM	IC50 (SERT [1]; in Figure 3, read-out: IC50(SERT)): 1700 µM; IC50 (SERT [1]; [13]): 1740 µM; IC50 (DAT [3]; [14]): 25.7 µM
Cc1ccc([C@@H](O)[C@H](C)N)cc1 [Dihydro-(R,S)-4-MC]							elicited only SERT-mediated currents	elicited only SERT-mediated currents	0.42	32.4 µM	+	4.94	13.5 µM	IC50 (SERT [1]; [16]): 66.9 µM; IC50 (SERT [1]; [17]): 66.9 µM; IC50 (DAT [3]; [14]): 13.5 µM
Cc1ccc([C@H](O)[C@H](C)N)cc1 [Dihydro-(S,S)-4-MC]							elicited only SERT-mediated currents	elicited only SERT-mediated currents	2.37	9.51 µM	+	1.42	22.6 µM	IC50 (SERT [1]; [16]): 32.2 µM; IC50 (SERT [1]; [17]): 32.2 µM; IC50 (DAT [3]; [14]): 22.4 µM
C[C@H](N)C(=O)c1ccc(CO)cc1 [S-4-OH-MC]							elicited both DAT- and SERT mediated currents	elicited both DAT- and SERT mediated currents	3.22	5.97 µM	−	2.08	19.2 µM	IC50 (SERT [1]; [13]): 40 µM
CC(N)C(O)c1ccc(CO)cc1 (stereo not drawn) [dihydro-4-OH-MC]														relative abundance [11]: 0.1–0.2%; detection in human urine sample [8]: not found
